Measured values taken from patent US12539292B2, “BRM targeting compounds and associated methods of use” (Arvinas Operations, Inc., priority 2018, dated 2026).
Read-outs that look alike come from different tables or passages of the source. Blank lines part the entries; values can stand above or below the compound they belong to.

Molecular target: T1, BRM (Homo sapiens, UniProt P51531)
T1 construct: In-Cell Western Screen of BRM Degradation in SW1573 Cells; endogenous in cells; host or cells: SW1573
T1 sequence (P51531 whole entry): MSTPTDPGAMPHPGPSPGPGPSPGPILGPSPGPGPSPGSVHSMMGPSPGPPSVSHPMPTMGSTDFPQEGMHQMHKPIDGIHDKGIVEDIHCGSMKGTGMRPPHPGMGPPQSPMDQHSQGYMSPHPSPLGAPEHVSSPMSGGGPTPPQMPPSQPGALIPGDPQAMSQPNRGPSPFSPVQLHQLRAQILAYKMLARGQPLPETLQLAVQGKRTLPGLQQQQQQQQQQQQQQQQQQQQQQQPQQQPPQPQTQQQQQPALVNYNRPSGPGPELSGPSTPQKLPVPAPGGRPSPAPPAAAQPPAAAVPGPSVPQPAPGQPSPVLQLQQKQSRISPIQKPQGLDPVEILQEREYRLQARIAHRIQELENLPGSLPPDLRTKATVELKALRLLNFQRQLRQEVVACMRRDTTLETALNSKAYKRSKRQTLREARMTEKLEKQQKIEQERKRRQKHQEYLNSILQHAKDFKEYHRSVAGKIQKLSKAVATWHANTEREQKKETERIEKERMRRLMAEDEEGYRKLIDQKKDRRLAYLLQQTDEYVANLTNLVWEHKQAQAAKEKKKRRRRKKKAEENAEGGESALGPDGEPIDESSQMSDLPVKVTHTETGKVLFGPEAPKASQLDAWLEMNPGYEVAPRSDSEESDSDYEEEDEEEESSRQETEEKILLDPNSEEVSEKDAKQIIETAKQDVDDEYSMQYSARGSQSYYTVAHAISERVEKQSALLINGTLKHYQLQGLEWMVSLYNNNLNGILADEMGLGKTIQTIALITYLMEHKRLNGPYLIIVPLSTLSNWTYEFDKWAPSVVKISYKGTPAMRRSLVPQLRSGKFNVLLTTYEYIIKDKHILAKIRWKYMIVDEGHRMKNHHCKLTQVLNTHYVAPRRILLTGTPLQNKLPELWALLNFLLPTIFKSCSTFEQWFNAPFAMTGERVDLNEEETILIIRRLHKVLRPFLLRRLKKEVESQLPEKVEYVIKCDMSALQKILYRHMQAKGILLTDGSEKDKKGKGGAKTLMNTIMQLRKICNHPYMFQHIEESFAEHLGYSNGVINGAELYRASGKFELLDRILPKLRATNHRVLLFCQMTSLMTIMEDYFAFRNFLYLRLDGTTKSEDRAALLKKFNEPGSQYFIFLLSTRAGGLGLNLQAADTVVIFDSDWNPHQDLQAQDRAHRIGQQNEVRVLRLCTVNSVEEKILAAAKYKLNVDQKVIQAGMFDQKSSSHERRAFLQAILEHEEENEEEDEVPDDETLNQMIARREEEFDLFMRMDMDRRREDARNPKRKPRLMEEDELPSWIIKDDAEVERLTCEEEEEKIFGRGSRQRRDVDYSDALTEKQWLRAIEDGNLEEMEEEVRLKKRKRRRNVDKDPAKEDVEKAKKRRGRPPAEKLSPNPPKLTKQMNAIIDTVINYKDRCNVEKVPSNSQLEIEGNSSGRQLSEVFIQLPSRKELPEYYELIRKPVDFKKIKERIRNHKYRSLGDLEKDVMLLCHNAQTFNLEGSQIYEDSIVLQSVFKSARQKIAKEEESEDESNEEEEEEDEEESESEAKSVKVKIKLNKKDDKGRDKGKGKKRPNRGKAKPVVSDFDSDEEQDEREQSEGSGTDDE
Assay: In-cell Western screen of BRM degradation in SW1573 cells (Dmax and DC50)
Format: cell-based
Procedure, shortened: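 SW1573 cells were treated overnight (18-20 hours) with compound at 0.1% final DMSO. They were then PFA-fixed, permeabilised with Triton X-100 and immunostained with 800 nm/680 nm secondary antibodies. BRM signal was quantified by LI-COR in-cell Western imaging to derive Dmax and DC50.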

[1] = BRM degradation, SW1573 cells, Table 2D, read-out: **Dmax (%) (% degraded)
[2] = BRM degradation, SW1573 cells, Table 2D, read-out: *DC50
[3] = BRM degradation, SW1573 cells, read-out: DC50
[4] = BRM degradation, SW1573 cells, read-out: Dmax (% degraded)
[5] = BRM degradation, SW1573 cells, when tested at the top concentration of between 0.3 and 10 μM, read-out: Dmax (%) (% degraded)
[6] = BRM degradation, SW1573 cells, tested at the top concentration of between 0.3 and 10 μM, read-out: Dmax (%) (% degraded)

DC50 (degradation of BRM, read-out: BRM DC50): > 30 nM
Structure (SMILES): Cc1ncsc1-c1ccc([C@@H](C)NC(=O)[C@H]2C[C@H](O)CN2C(=O)[C@H](c2cc(OCCN3CCC(O)(CN4CC(Oc5cc(N6C7CCC6CN(c6cc(-c8ccccc8O)nnc6N)C7)ccn5)C4)CC3)no2)C(C)C)cc1 (mixture of isomers) [compound 446, rac-(2R,4S)-1-((2S)-2-(3-(2-(4-((3-((4-(3-(3-amino-6-(2-hydroxyphenyl)pyridazin-4-yl)-3,8-diazabicyclo[3.2.1]octan-8-yl)pyridin-2-yl)oxy)azetidin-1-yl)methyl)-4-hydroxypiperidin-1-yl)ethoxy)isoxazol-5-yl)-3-methylbutanoyl)-4-hydroxy-N-((R)-1-(4-(4-methylthiazol-5-yl)phenyl)ethyl)pyrrolidine-2-carboxamide]

Dmax [1]: > 75%
DC50 [2]: < 2.5 nM
Structure (SMILES): Cc1ncsc1-c1ccc([C@H](C)NC(=O)[C@@H]2C[C@@H](O)CN2C(=O)[C@H](c2cc(N3CCC(OC4CCN(CC5CC(CN6CCC([C@@H](C)n7cc(-c8cc(-c9ccccc9O)nnc8N)cn7)CC6)C5)CC4)CC3)no2)C(C)C)cc1 (single isomer, unassigned) [compound 595]

Structure (SMILES): Cc1ncsc1-c1ccc([C@H](C)NC(=O)[C@@H]2C[C@@H](O)CN2C(=O)[C@@H](c2cc(N3CCC[C@H](CN4CCC(O[C@H]5C[C@H](Oc6cc(N7C8CCC7CN(c7cc(-c9ccccc9O)nnc7N)C8)ccn6)C5)CC4)C3)no2)C(C)C)cc1 (single isomer, unassigned) [compound 656]
DC50 [3]: < 2.5 nM
Dmax [4]: > 75%

Structure (SMILES): Cc1ncsc1-c1ccc([C@H](C)NC(=O)[C@@H]2C[C@@H](O)CN2C(=O)[C@@H](c2cc(N3CCC(CN4CCC(O[C@H]5C[C@H](Oc6cc(N7C8CCC7CN(c7cc(-c9ccccc9O)nnc7N)C8)ccn6)C5)CC4)CC3)no2)C(C)C)c(O)c1 [compound 690, (2S,4R)-1-((2R)-2-(3-(4-((4-((1r,3r)-3-((4-(3-(3-amino-6-(2-hydroxyphenyl)pyridazin-4-yl)-3,8-diazabicyclo[3.2.1]octan-8-yl)pyridin-2-yl)oxy)cyclobutoxy)piperidin-1-yl)methyl)piperidin-1-yl)isoxazol-5-yl)-3-methylbutanoyl)-4-hydroxy-N-((S)-1-(2-hydroxy-4-(4-methylthiazol-5-yl)phenyl)ethyl)pyrrolidine-2-carboxamide]
DC50 [3]: < 2.5 nM
Dmax [4]: > 75%

DC50 [3]: > 30 nM
Dmax [5]: > 75%
Structure (SMILES): Cc1ncsc1-c1ccc(CNC(=O)[C@@H]2C[C@@H](O)CN2C(=O)[C@H](c2cc(CCCOCCOCCOCCOCCn3cc(-c4cc(-c5ccccc5O)nnc4N)cn3)no2)C(C)C)cc1 [compound 25]

DC50 [3]: 2.5 to 10 nM
Dmax [6]: > 75%
Structure (SMILES): Cc1ncsc1-c1ccc([C@H](C)NC(=O)[C@@H]2C[C@@H](O)CN2C(=O)[C@@H](c2cc(OCCOCCOCCOCCn3cc(-c4cc(-c5ccccc5O)nnc4N)cn3)no2)C(C)C)cc1 [compound 182, (2S,4R)-1-((R)-2-(3-(2-(2-(2-(2-(4-(3-amino-6-(2-hydroxyphenyl)pyridazin-4-yl)-1H-pyrazol-1-yl)ethoxy)ethoxy)ethoxy)ethoxy)isoxazol-5-yl)-3-methylbutanoyl)-4-hydroxy-N-((S)-1-(4-(4-methylthiazol-5-yl)phenyl)ethyl)pyrrolidine-2-carboxamide]

Structure (SMILES): Cc1ncsc1-c1ccc([C@H](C)NC(=O)[C@@H]2C[C@@H](O)CN2C(=O)[C@@H](c2cc(N3CCC(CN4CCC(COc5cc(N6C7CCC6CN(c6cc(-c8ccccc8O)nnc6N)C7)ccn5)CC4)CC3)no2)C(C)C)cc1 [compound 603, (2S,4R)-1-((2R)-2-(3-(4-((4-(((4-(3-(3-amino-6-(2-hydroxyphenyl)pyridazin-4-yl)-3,8-diazabicyclo[3.2.1]octan-8-yl)pyridin-2-yl)oxy)methyl)piperidin-1-yl)methyl)piperidin-1-yl)isoxazol-5-yl)-3-methylbutanoyl)-4-hydroxy-N-((S)-1-(4-(4-methylthiazol-5-yl)phenyl)ethyl)pyrrolidine-2-carboxamide]
Dmax [1]: > 75%
DC50 [2]: < 2.5 nM

Structure (SMILES): Cc1ncsc1-c1ccc([C@H](C)NC(=O)[C@@H]2C[C@@H](O)CN2C(=O)[C@H](c2cc(OCCC#Cc3ccc(OC4CC(Oc5cc(N6C7CC[C@@H]6CN(c6cc(-c8ccccc8O)nnc6N)C7)ccn5)C4)cn3)no2)C(C)C)cc1 (stereo partly drawn) [compound 226, (2S,4R)-1-((2S)-2-(3-((4-(5-((1r,3r)-3-((4-(3-(3-amino-6-(2-hydroxyphenyl)pyridazin-4-yl)-3,8-diazabicyclo[3.2.1]octan-8-yl)pyridin-2-yl)oxy)cyclobutoxy)pyridin-2-yl)but-3-yn-1-yl)oxy)isoxazol-5-yl)-3-methylbutanoyl)-4-hydroxy-N-((S)-1-(4-(4-methylthiazol-5-yl)phenyl)ethyl)pyrrolidine-2-carboxamide]
DC50 [3]: 10 to 30 nM
Dmax (%) (% degraded) (BRM degradation, SW1573 cells, tested at the top concentration of between 0.3 and 10 μM): A (A > 75)

Structure (SMILES): Cc1ncsc1-c1ccc(CNC(=O)[C@@H]2C[C@@H](O)CN2C(=O)[C@@H](c2cc(OCCOCCOCCOc3cc(N4C5CCC4CN(c4cc(-c6ccccc6O)nnc4N)C5)ccn3)no2)C(C)C)cc1 [compound 28, (2S,4R)-1-[(2R)-2-[3-[2-(2-[2-[(4-[3-[3-amino-6-(2-hydroxyphenyl)pyridazin-4-yl]-3,8-diazabicyclo[3.2.1]octan-8-yl]pyridin-2-yl)oxy]ethoxy]ethoxy)ethoxy]-1,2-oxazol-5-yl]-3-methylbutanoyl]-4-hydroxy-N-[[4-(4-methyl-1,3-thiazol-5-yl)phenyl]methyl]pyrrolidine-2-carboxamide]
DC50 [3]: < 2.5 nM
Dmax [5]: > 75%

Structure (SMILES): Cc1ncsc1-c1ccc([C@H](C)NC(=O)[C@@H]2C[C@@H](O)CN2C(=O)[C@@H](c2cc(N3CCC(CN4CCC(O[C@H]5C[C@H](Oc6cc(N7C8CCC7CN(c7cc(-c9ccccc9O)nnc7N)C8)ccn6)C5)CC4)CC3)no2)C(C)C)cn1 [compound 675, (2S,4R)-1-((2R)-2-(3-(4-((4-((1r,3r)-3-((4-(3-(3-amino-6-(2-hydroxyphenyl)pyridazin-4-yl)-3,8-diazabicyclo[3.2.1]octan-8-yl)pyridin-2-yl)oxy)cyclobutoxy)piperidin-1-yl)methyl)piperidin-1-yl)isoxazol-5-yl)-3-methylbutanoyl)-4-hydroxy-N-((S)-1-(6-(4-methylthiazol-5-yl)pyridin-3-yl)ethyl)pyrrolidine-2-carboxamide]
DC50 [3]: < 2.5 nM
Dmax [4]: > 75%

Structure (SMILES): Cc1ncsc1-c1ccc([C@H](C)NC(=O)[C@@H]2C[C@@H](O)CN2C(=O)[C@@H](c2cc(CCCN3CCC(O[C@H]4C[C@H](Oc5cc(N6C7CCC6CN(c6cc(-c8ccccc8O)nnc6N)C7)ccn5)C4)CC3)no2)C(C)C)cc1 [compound 191, (2S,4R)-1-((2R)-2-(3-(3-(4-((1r,3R)-3-((4-(3-(3-amino-6-(2-hydroxyphenyl)pyridazin-4-yl)-3,8-diazabicyclo[3.2.1]octan-8-yl)pyridin-2-yl)oxy)cyclobutoxy)piperidin-1-yl)propyl)isoxazol-5-yl)-3-methylbutanoyl)-4-hydroxy-N-((S)-1-(4-(4-methylthiazol-5-yl)phenyl)ethyl)pyrrolidine-2-carboxamide]
DC50 [3]: < 2.5 nM
Dmax [6]: > 75%

DC50 [3]: > 30 nM
Structure (SMILES): Cc1cnnn1-c1ccc([C@H](C)NC(=O)[C@@H]2C[C@@H](O)CN2C(=O)[C@H](c2cc(OCCN3CCN(CCOc4cc(N5C6CCC5CN(c5cc(-c7ccccc7O)nnc5N)C6)ccn4)CC3)no2)C(C)C)cc1 [compound 274, (2S,4R)-1-((2S)-2-(3-(2-(4-(2-((4-(3-(3-amino-6-(2-hydroxyphenyl)pyridazin-4-yl)-3,8-diazabicyclo[3.2.1]octan-8-yl)pyridin-2-yl)oxy)ethyl)piperazin-1-yl)ethoxy)isoxazol-5-yl)-3-methylbutanoyl)-4-hydroxy-N-((S)-1-(4-(5-methyl-1H-1,2,3-triazol-1-yl)phenyl)ethyl)pyrrolidine-2-carboxamide]

Structure (SMILES): Cc1ncsc1-c1ccc([C@H](C)NC(=O)[C@@H]2C[C@@H](O)CN2C(=O)C(c2cc(N3CCC(CN4CCC(O[C@H]5C[C@H](CN6CCOC7(CCN(c8cc(-c9ccccc9O)nnc8N)CC7)C6)C5)CC4)CC3)no2)C(C)C)cc1 (stereo partly drawn) [compound 610, (2S,4R)-1-((R)-2-(3-(4-((4-((1r,3r)-3-((9-(3-amino-6-(2-hydroxyphenyl)pyridazin-4-yl)-1-oxa-4,9-diazaspiro[5.5]undecan-4-yl)methyl)cyclobutoxy)piperidin-1-yl)methyl)piperidin-1-yl)isoxazol-5-yl)-3-methylbutanoyl)-4-hydroxy-N-((S)-1-(4-(4-methylthiazol-5-yl)phenyl)ethyl)pyrrolidine-2-carboxamide]
Dmax [1]: > 75%
DC50 [2]: < 2.5 nM

Structure (SMILES): Cc1ncsc1-c1ccc([C@H](C)NC(=O)[C@@H]2C[C@@H](O)CN2C(=O)[C@H](c2cc(N3CCC(F)(CN4CCC(O[C@H]5C[C@H](Oc6cc(N7C8CCC7CN(c7cc(-c9ccccc9O)nnc7N)C8)ccn6)C5)CC4)CC3)no2)C(C)C)cc1 [compound 682, (2S,4R)-1-((2S)-2-(3-(4-((4-((1r,3r)-3-((4-(3-(3-amino-6-(2-hydroxyphenyl)pyridazin-4-yl)-3,8-diazabicyclo[3.2.1]octan-8-yl)pyridin-2-yl)oxy)cyclobutoxy)piperidin-1-yl)methyl)-4-fluoropiperidin-1-yl)isoxazol-5-yl)-3-methylbutanoyl)-4-hydroxy-N-((S)-1-(4-(4-methylthiazol-5-yl)phenyl)ethyl)pyrrolidine-2-carboxamide]
DC50 [3]: 2.5 to 10 nM
Dmax [4]: > 75%
